Patent US20200397700A1, “GRANULAR COMPOSITION, PRODUCTION METHOD FOR GRANULAR COMPOSITION, AND DISSOLUTION PROPERTY IMPROVEMENT METHOD FOR GRANULAR COMPOSITION” (NIPPON SHINYAKU CO., LTD., priority 2018, published 2020)
Where a name gives a salt, the structure may show the parent alone.

Assay: Dissolution test, Japanese Pharmacopoeia 17th Edition, paddle method, water
Assay type: physicochemical
Details: for dissolution rate of the mixture with an excipient after compression molding versus the mixture not compression molded: drug mixed with an excipient, compression molded in the same manner as in this embodiment
Protocol: With respect to the granular compositions of Examples 1 to 8, and Comparative Examples 1 to 8 prepared as described above, a dissolution test was performed. The dissolution test was performed according to the dissolution test method of the Japanese Pharmacopoeia, Seventeenth Edition. By using a dissolution testing device (NTR-6000 series, manufactured by Toyama Sangyo Co., Ltd.), the dissolution test was performed by a paddle method using water as a dissolution test liquid. At this time, the volume of the dissolution test liquid was set to 900 mL, the temperature of the dissolution test liquid was set to 37 ±0.5° C., and the paddle rotation rate was set to 50 rpm. With respect to the respective Examples and the respective Comparative Examples, the total amount was added to the dissolution test liquid, and the dissolution test liquid was sampled at 5, 10, 15, 30, 45, 60, 90, and 120 minutes after the start of the test, and filtered through a 0.45-μm filter (manufactured by Whatman GE Healthcare Biosciences), and then, the dissolution rate of Compound (I) was measured using high performance liquid chromatography.
FIGS. 5 to 9 show the time course of the dissolution rate of Compound (I) in the granular compositions of Examples 1 to 5, respectively, and also show the time course of the dissolution rate of Compound (I) in Comparative Examples 1 to 5, respectively. […] In FIGS. 5 to 11, the vertical axis represents the dissolution rate (unit: %) and the horizontal axis represents a time (unit: min). The solid lines E1 to E8 represent the cases of Examples 1 to 8, respectively, and the broken lines C1 to C8 represent the cases of Comparative Examples 1 to 8, respectively.

With `CC(C)N(CCCCOCC(=O)NS(C)(=O)=O)c1cnc(-c2ccccc2)c(-c2ccccc2)n1` [Compound (I), 2-{4-[N-(5,6-diphenylpyradin-2-yl)-N-isopropylamino]butyloxy}-N-(methylsulfonyl)acetamide] the “dissolution property of Compound (I)” value (in a granule obtained by a fluidized bed granulation method) was “low”.

With `CC(=O)Nc1ccc(O)cc1` [acetaminophen] the “dissolution rate of the mixture with an excipient after compression molding versus the mixture not compression molded” value was “substantially equivalent”.

For `CCN(CC)C(=O)Nc1ccc(OCC(O)CNC(C)(C)C)c(C(C)=O)c1` (stereo not shown) [celiprolol hydrochloride], the “dissolution rate of the mixture with an excipient after compression molding versus the mixture not compression molded” value was “substantially equivalent”.

With `COc1ccc2c(c1)c(CC(=O)O)c(C)n2C(=O)c1ccc(Cl)cc1` [indomethacin] the “dissolution rate of the mixture with an excipient after compression molding versus the mixture not compression molded” value was “substantially equivalent”.
